From ChEMBL document CHEMBL5131467, “Multivalent peptide dendrimers inhibit the fusion of viral-cellular membranes and the cellular NF-κB signaling pathway” (Eur J Med Chem, 2022) come the findings set out here.

As usually defined, the CC50 is the concentration giving 50% cytotoxicity. As a reminder, the pIC50 is the negative decadic logarithm of the IC50, by convention in mol/L.

pIC50: −log10 of the molar value. Where a SMILES comes first, the peptide text is derived from it. Bridges are numbered along the chain shown (N, C = ends). Roman numbers before positions name the chains, in order. Side-chain parts run from the residue outwards. The star is where a group is joined. Phenylacetyl(4-Ph) = O=C(Cc1ccc(-c2ccccc2)cc1)*; Fmoc = O=C(OCC1c2ccccc2-c2ccccc21)*; Palmitoyl = CCCCCCCCCCCCCCCC(=O)*; Lauroyl = CCCCCCCCCCCC(=O)*

The nature of series [1]: Cytotoxicity against MDCK cells incubated for 1 hr by MTT assay. Type of series: toxicity, cell-based, Canis lupus familiaris. As to conditions: dog.
Series [2] deals with Influenza A virus. Description: Antiviral activity against Influenza A virus (A/Puerto Rico/8/1934(H1N1)) infected in MDCK cells assessed as reduction in virus induced cytopathic effect pretreated with compound incubated for 1 hrs by MTT assay. In kind it is functional, organism-based. A general note: Protection from cytopathic effect is a common read-out in antiviral testing.

Series [3] can be described thus: Selectivity index, ratio of CC50 for MDCK cells to IC50 antiviral activity against Influenza A virus (A/Puerto Rico/8/1934(H1N1)) infected in MDCK cells assessed as reduction in virus induced cytopathic effect pre-treated with virus. In kind it is toxicity, cell-based. As to conditions: dog, read-out: Selectivity Index.
Series [4] concerns Influenza A virus. Description: Antiviral activity against Influenza A virus (A/Puerto Rico/8/1934(H1N1)) infected in MDCK cells assessed as reduction in virus induced cytopathic effect during infection incubated for 1 hr by MTT assay. In kind it is functional, organism-based.
Series [5] relates to Influenza A virus. In words: Antiviral activity against Influenza A virus (A/Puerto Rico/8/1934(H1N1)) infected in MDCK cells assessed as reduction in virus induced cytopathic effect after infection incubated for 1 hr by MTT assay. In kind it is functional, organism-based.
In series [6] the test system is Influenza A virus. In words: Antiviral activity against Influenza A virus (A/Puerto Rico/8/1934(H1N1)) infected in MDCK cells assessed as reduction in virus induced cytopathic effect pre-treated with virus followed by cell infection for 1 hr by MTT assay. In kind it is functional, organism-based.

As to `NCCCC[C@H](NC(=O)OCC1c2ccccc2-c2ccccc21)C(=O)N[C@@H](Cc1c[nH]c2ccccc12)C(=O)N[C@@H](CCCCN)C(=O)N[C@@H](CCCCN)C(=O)NCCCC[C@H](NC(=O)[C@H](CCCCN)NC(=O)[C@H](CCCCN)NC(=O)[C@H](Cc1c[nH]c2ccccc12)NC(=O)[C@H](CCCCN)NC(=O)OCC1c2ccccc2-c2ccccc21)C(=O)NCCCC[C@H](NC(=O)[C@H](CCCCNC(=O)[C@H](CCCCN)NC(=O)[C@H](CCCCN)NC(=O)[C@H](Cc1c[nH]c2ccccc12)NC(=O)[C@H](CCCCN)NC(=O)OCC1c2ccccc2-c2ccccc21)NC(=O)[C@H](CCCCN)NC(=O)[C@H](CCCCN)NC(=O)[C@H](Cc1c[nH]c2ccccc12)NC(=O)[C@H](CCCCN)NC(=O)OCC1c2ccccc2-c2ccccc21)C(=O)NCC(=O)O` (I: Fmoc-KWKKK([Lys-Lys-Trp-Lys-Fmoc])KG-OH / II: Fmoc-KWKKK([Lys-Lys-Trp-Lys-Fmoc]); amide I:6-II:C), the CC50 at 1 h in series [1] stood at 11700 nM. Besides, the pIC50 with Influenza A virus [2] is 6.33; in the series with Influenza A virus [4] it was 5.94; in the series on Influenza A virus [5], 5.30; in the series with Influenza A virus [6], 6.21. In addition, in series [3], the selectivity ratio was 18.8.

Take `NCCCC[C@H](NC(=O)[C@H](Cc1c[nH]c2ccccc12)NC(=O)[C@H](CCCCN)NC(=O)[C@@H](N)CCCCN)C(=O)NCCCC[C@H](NC(=O)[C@H](CCCCN)NC(=O)[C@H](Cc1c[nH]c2ccccc12)NC(=O)[C@H](CCCCN)NC(=O)[C@@H](N)CCCCN)C(=O)NCCCC[C@H](NC(=O)[C@H](CCCCNC(=O)[C@H](CCCCN)NC(=O)[C@H](Cc1c[nH]c2ccccc12)NC(=O)[C@H](CCCCN)NC(=O)[C@@H](N)CCCCN)NC(=O)[C@H](CCCCN)NC(=O)[C@H](Cc1c[nH]c2ccccc12)NC(=O)[C@H](CCCCN)NC(=O)[C@@H](N)CCCCN)C(=O)NCC(=O)O` (I: H-KKWKK([Lys-Trp-Lys-Lys])KG-OH / II: H-KKWKK([Lys-Trp-Lys-Lys]); amide I:6-II:C): the CC50 at 1 h in series [1] was 150000 nM. The pIC50 in the series on Influenza A virus [2] was < 5.00; in the series on Influenza A virus [4], < 5.30; with Influenza A virus [6], < 5.30.

In the case of `CCCCCCCCCCCC(=O)N[C@@H](CCCCN)C(=O)N[C@@H](CCCCN)C(=O)N[C@@H](Cc1c[nH]c2ccccc12)C(=O)N[C@@H](CCCCN)C(=O)NCCCC[C@H](NC(=O)[C@H](CCCCN)NC(=O)[C@H](Cc1c[nH]c2ccccc12)NC(=O)[C@H](CCCCN)NC(=O)[C@H](CCCCN)NC(=O)CCCCCCCCCCC)C(=O)NCCCC[C@H](NC(=O)[C@H](CCCCNC(=O)[C@H](CCCCN)NC(=O)[C@H](Cc1c[nH]c2ccccc12)NC(=O)[C@H](CCCCN)NC(=O)[C@H](CCCCN)NC(=O)CCCCCCCCCCC)NC(=O)[C@H](CCCCN)NC(=O)[C@H](Cc1c[nH]c2ccccc12)NC(=O)[C@H](CCCCN)NC(=O)[C@H](CCCCN)NC(=O)CCCCCCCCCCC)C(=O)NCC(=O)O` (I: Lauroyl-KKWKK([Lys-Trp-Lys-Lys-Lauroyl])KG-OH / II: Lauroyl-KKWKK([Lys-Trp-Lys-Lys-Lauroyl]); amide I:6-II:C), in series [1], the CC50 at 1 h was 5470 nM. Further, the pIC50 in the series on Influenza A virus [2] is 6.51; with Influenza A virus [4], 6.37; in the series on Influenza A virus [5], < 5.30; in the series on Influenza A virus [6] it was 6.55. Also, the selectivity ratio in series [3] was determined as 19.7.

`CCCCCCCCCCCCCCCC(=O)N[C@@H](CCCCN)C(=O)N[C@@H](CCCCN)C(=O)N[C@@H](Cc1c[nH]c2ccccc12)C(=O)N[C@@H](CCCCN)C(=O)NCCCC[C@H](NC(=O)[C@H](CCCCN)NC(=O)[C@H](Cc1c[nH]c2ccccc12)NC(=O)[C@H](CCCCN)NC(=O)[C@H](CCCCN)NC(=O)CCCCCCCCCCCCCCC)C(=O)NCCCC[C@H](NC(=O)[C@H](CCCCNC(=O)[C@H](CCCCN)NC(=O)[C@H](Cc1c[nH]c2ccccc12)NC(=O)[C@H](CCCCN)NC(=O)[C@H](CCCCN)NC(=O)CCCCCCCCCCCCCCC)NC(=O)[C@H](CCCCN)NC(=O)[C@H](Cc1c[nH]c2ccccc12)NC(=O)[C@H](CCCCN)NC(=O)[C@H](CCCCN)NC(=O)CCCCCCCCCCCCCCC)C(=O)NCC(=O)O` (I: Palmitoyl-KKWKK([Lys-Trp-Lys-Lys-Palmitoyl])KG-OH / II: Palmitoyl-KKWKK([Lys-Trp-Lys-Lys-Palmitoyl]); amide I:6-II:C) displayed a CC50 at 1 h in series [1] of 1580 nM. Also, the pIC50 is 6.85 with Influenza A virus [2], 6.89 in the series on Influenza A virus [4], < 5.30 in the series on Influenza A virus [5] and 7.00 in the series on Influenza A virus [6].

As for `CCCCCCCCCCCCCCCC(=O)N[C@@H](CCCCN)C(=O)N[C@@H](Cc1c[nH]c2ccccc12)C(=O)N[C@@H](CCCCN)C(=O)N[C@@H](CCCCN)C(=O)NCCCC[C@H](NC(=O)[C@H](CCCCN)NC(=O)[C@H](CCCCN)NC(=O)[C@H](Cc1c[nH]c2ccccc12)NC(=O)[C@H](CCCCN)NC(=O)CCCCCCCCCCCCCCC)C(=O)NCCCC[C@H](NC(=O)[C@H](CCCCNC(=O)[C@H](CCCCN)NC(=O)[C@H](CCCCN)NC(=O)[C@H](Cc1c[nH]c2ccccc12)NC(=O)[C@H](CCCCN)NC(=O)CCCCCCCCCCCCCCC)NC(=O)[C@H](CCCCN)NC(=O)[C@H](CCCCN)NC(=O)[C@H](Cc1c[nH]c2ccccc12)NC(=O)[C@H](CCCCN)NC(=O)CCCCCCCCCCCCCCC)C(=O)NCC(=O)O` (I: Palmitoyl-KWKKK([Lys-Lys-Trp-Lys-Palmitoyl])KG-OH / II: Palmitoyl-KWKKK([Lys-Lys-Trp-Lys-Palmitoyl]); amide I:6-II:C), half-maximal cytotoxicity in series [1] (CC50 at 1 h) was put at 670 nM. In addition, the pIC50 with Influenza A virus [2] was 6.77; in the series on Influenza A virus [4] it was 6.77; with Influenza A virus [5], < 5.30; in the series with Influenza A virus [6], 6.72.

As for `NCCCC[C@H](NC(=O)Cc1ccc(-c2ccccc2)cc1)C(=O)N[C@@H](CCCCN)C(=O)N[C@@H](Cc1c[nH]c2ccccc12)C(=O)N[C@@H](CCCCN)C(=O)NCCCC[C@H](NC(=O)[C@H](CCCCN)NC(=O)[C@H](Cc1c[nH]c2ccccc12)NC(=O)[C@H](CCCCN)NC(=O)[C@H](CCCCN)NC(=O)Cc1ccc(-c2ccccc2)cc1)C(=O)NCCCC[C@H](NC(=O)[C@H](CCCCNC(=O)[C@H](CCCCN)NC(=O)[C@H](Cc1c[nH]c2ccccc12)NC(=O)[C@H](CCCCN)NC(=O)[C@H](CCCCN)NC(=O)Cc1ccc(-c2ccccc2)cc1)NC(=O)[C@H](CCCCN)NC(=O)[C@H](Cc1c[nH]c2ccccc12)NC(=O)[C@H](CCCCN)NC(=O)[C@H](CCCCN)NC(=O)Cc1ccc(-c2ccccc2)cc1)C(=O)NCC(=O)O` (I: {Phenylacetyl(4-Ph)}-KKWKK([Lys-Trp-Lys-Lys-Phenylacetyl(4-Ph)])KG-OH / II: {Phenylacetyl(4-Ph)}-KKWKK([Lys-Trp-Lys-Lys-Phenylacetyl(4-Ph)]); amide I:6-II:C), the half-maximal cytotoxic concentration (CC50) at 1 h in series [1] is 19300 nM. Besides, the pIC50 is 6.77 in the series on Influenza A virus [2], 6.70 with Influenza A virus [4] and 6.72 in the series on Influenza A virus [6]. Further, the selectivity ratio in series [3] came out at 103.
